Consider two molecules from patent US9035044B2, “L-proline and citric acid co-crystals of (2S, 3R, 4R, 5S,6R)-2-(3-((5-(4-fluorophenyl)thiopen-2-yl)methyl)4-methylphenyl)-6-(hydroxymethyl)tetrahydro-2H-pyran-3,4,5-triol” (Janssen Pharmaceutica NV, priority 2011, dated 2015).

Type in all cases: physicochemical
Data set [1] can be described thus: Dynamic vapor sorption/desorption (DVS). The settings on record: for hygroscopicity: 0% RH to 90% RH, 2 full cycles; for form conversion by pXRD after the DVS run: isolated at 0% RH. The protocol:
DVS: Moisture sorption was characterized on a DVS-1 Instrument (Surface Measurement Systems, Allentown, Pa.). In each case, the sample was subject to a drying curve from ambient to 0% relative humidity (RH), followed by two cycles of sorption (from 0% RH to 90% RH) and desorption (from 90% RH to 0% RH) in 10% RH steps at 25° C. At each step the sample was allowed to equilibrate at a specific % RH and thus, stabilize in terms of weight gained or lost prior to the instrument moving to the next step within the method.
The crystalline L-proline co-crystal of the compound of formula (I-X) was further characterized using Dynamic Vapor Sorption (DVS), measuring from 0% RH to 90% RH (2 full cycles) at 25° C.
The crystalline citric acid co-crystal of the compound of formula (I-X) was further characterized using Dynamic Vapor Sorption (DVS), measuring from 0% RH to 90% RH (2 full cycles) at 25° C.

Data set [2] in a line: Physical stability on storage in serum crimp vials. Particulars: up to 4 weeks; for physical stability: 5° C. sealed, 25° C./60% RH open, 40° C. sealed, 40° C./75% RH open, 60° C. sealed, 80° C. sealed. How it is done:
The crystalline L-proline co-crystal of the compound of formula (I-X) was tested for physical stability by storing about 10 mg of the co-crystal in 10 mL serum crimp vials, under following conditions: (a) 5° C., sealed; (b) 25° C./60% RH, open; (c) 40° C., sealed; (d) 40° C./75% RH, open; (e) 60° C., sealed; and (f) 80° C., sealed; with stability data collected at 1 day, 1 week, 2 weeks and 4 weeks.
The crystalline citric acid co-crystal of the compound of formula (I-X) was similarly tested for physical stability by storing about 10 mg of the co-crystal in […], under following conditions: (a) 5° C., sealed; (b) 25° C./60% RH, open; (c) 40° C., sealed; (d) 40° C./75% RH, open; (e) 60° C., sealed; and (f) 80° C., sealed; with stability data collected at 1 day, 1 week, 2 weeks and 4 weeks.

The nature of data set [3]: Chemical stability/degradation of stored samples by HPLC. The settings on record: 1 week. The protocol:
Samples of the crystalline L-proline co-crystal of the compound of formula (I-X) being tested for physical stability, sampled at 1 day, 1 week, 2 weeks and 4 weeks, were further tested for chemical stability/degradation. Crystalline L-proline co-crystal of the compound of formula (I-X) (˜10 mg) was diluted with a 50:50 water:acetonitrile solution (10 mL), and then further diluted 10 fold for HPLC measurements.
Samples of the crystalline citric acid co-crystal of the compound of formula (I-X) being tested for physical stability, sampled at 1 day, 1 week, 2 weeks and 4 weeks, were further tested for chemical stability/degradation. Crystalline citric acid co-crystal of the compound of formula (I-X) (˜10 mg) was diluted with a 50:50 water:acetonitrile solution (10 mL), and then further diluted 10 fold for HPLC measurements.

Setting [4] is: all six storage conditions, 1 day, 2 weeks and 4 weeks.
[5] abbreviates: 25° C./60% RH open and 60° C. sealed, 2 week and 4 week samples.
[6] abbreviates: 40° C./75% RH open and 80° C. sealed, 2 week and 4 week samples.

As for `Cc1ccc([C@@H]2O[C@H](CO)[C@@H](O)[C@H](O)[C@H]2O)cc1Cc1ccc(-c2ccc(F)cc2)s1` [crystalline L-proline co-crystal of the compound of formula ] [(2S,3R,4R,5S,6R)-2-(3-((5-(4-fluorophenyl)thiophen-2-yl)methyl)-4-methylphenyl)-6-(hydroxymethyl)tetrahydro-2H-pyran-3,4,5-triol], the hygroscopicity entry in data set [1] (25° C.) is “hygroscopic”. Further, in data set [1] (between 40% RH and 90% RH, 25° C., lost on desorption with some hysteresis), the mass gain is 12%. Besides, the “form conversion by pXRD after the DVS run” value in data set [1] is recorded as “no irreversible form conversion”. In data set [1] (until % RH reached 40%, 25° C.), the weight gain entry is recorded as “no weight gain was observed”. In addition, the physical stability result in data set [2] is “physically stable”. For the same molecule, the visible color changes entry in data set [2] (all six storage conditions) is reported as “no visible color changes”. Moreover, in data set [3] (setting [4]), the “chemical stability (HPLC)” value is “chemically stable” and the “degradation peaks (HPLC)” value is reported as “No degradation peaks were observed”.

Regarding `Cc1ccc([C@@H]2O[C@H](CO)[C@@H](O)[C@H](O)[C@H]2O)cc1Cc1ccc(-c2ccc(F)cc2)s1` [crystalline citric acid co-crystal of the compound of formul] [(2S,3R,4R,5S,6R)-2-(3-((5-(4-fluorophenyl)thiophen-2-yl)methyl)-4-methylphenyl)-6-(hydroxymethyl)tetrahydro-2H-pyran-3,4,5-triol], the hygroscopicity entry in data set [1] (25° C.) is reported as “non-hygroscopic”. The molecule further came in with an increase in mass in data set [1] (0%-80% RH, 25° C., lost again on desorption) of 0.5%. For the same molecule, the “form conversion by pXRD after the DVS run” value in data set [1] was “no form conversion”. The physical stability entry in data set [2] is listed as “physically stable”. Further, the “degradation on a peak basis” value in data set [2] (stored at 25° C./60% RH, 40° C./75% RH, 60° C. or 80° C.) is reported as < 0.3%. For the same molecule, the “degradation peaks (HPLC)” value in data set [3] (setting [5]) is given as “A small degradation peak was observed”; in data set [3] (setting [6]), “A few small degradation peaks were also observed”. The “peak purity (HPLC)” value in data set [3] (setting [5]) and in data set [3] (setting [6]) was > 99% in each case. Also, the “chemical stability (HPLC)” value in data set [3] (stored at 5° C. sealed and 40° C. sealed, 1 day, 2 weeks and 4 weeks) is “chemically stable”.
